In patent US9605013B2, “Derivatives of hemin with antibacterial and antiviral activity” (OBSCHESTVO S OGRANICHENNOI OTVETSTVENNOSTIYU …, priority 2011, dated 2017):

System: Enterococcus faecalis BKM B-871
Assay: Antibacterial activity, serial dilutions in liquid MH medium
Type: cell-based
Conditions: for MIC: MH medium, 20 h, 37° C., 100% growth inhibition; for MBC: no colonies on agarized MH medium
Summary of the method: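 Broth microdilution in Mueller-Hinton medium at 37 °C with stirring, using exponential-phase cultures seeded at 5×10^4 to 1×10^5 cells/mL with twofold serial compound dilutions. Growth inhibition read as A595 after 20 h, corrected for compound absorbance; MIC and MBC determined.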

Row | Compound | MIC | MBC
1 | 6,7-bis-[(Diamide N^α-L-Arginyl)-L-glutamyl]-Protohemin (IX) | 25 µM | 50 µM
2 | C=CC1=C(C)c2cc3[n-]c(cc4[n-]c(cc5nc(cc1n2)C(C)=C5C=C)c(C)c4CCC(=O)N[C@@H](CCCNC(=N)N)C(N)=O)c(CCC(=O)N[C@@H](CCCNC(=N)N)C(N)=O)c3C.[Cl-].[Fe+3] [II, 6,7-bis-(Amide N^α-Arginyl)-Protohemin (IX)] | 6.3 µM | 12.5 µM
